{
  "source": "patent US20230345944A1",
  "about": "“Purified and Enhanced Hydrogen Peroxide Disinfecting Solution for the Rapid Inactivation of COVID-19 and Other Pathogens” (Alira Health Boston LLC, priority 2021, published 2023)",
  "origin": "cited, not measured here",
  "system": "bacteria",
  "conditions": "hydrogen peroxide on its own",
  "data": [
    {"compound": "OO", "note": "[hydrogen peroxide]", "values": [
      {"measurement": "minimal inhibitory concentration (MIC)", "value": "about 1 mM"}
    ]}
  ]
}
